The source of these data is patent publication US20120058208A1 (SYNTHITE INDUSTRIES LTD., priority 2010, published 2012).

For data set [1] the following is noted: given dose 50 mg/kg; adjuvant given with curcumin; cited from earlier work.
The subject of data set [2] is HCT-116 human xenograft. Put plainly: In vivo anti-cancer activity in human colorectal (HCT-116) xenograft model in SCID mice. On the procedure: Human colorectal (HCT-116) xenograft model in SCID mice
Five-week-old female mice purchased from the Advanced Centre for Treatment, Research and Education in Cancer (ACTREC) were used for in vivo experiments. The Institutional Animal Ethics Committee (IAEC) approved the in vivo study. Animals were injected with 1×10^6 HCT-116 cells subcutaneously in the flank region. Animals were monitored daily during the period between inoculation and palpable tumor growth. Tumor size was measured with a digital Vernier caliper and tumor-bearing mice were randomized into control and treatment groups (n=8), when the tumor volume was attained ˜100 mm^3. […] Tumor volume and was body weight was measured twice weekly. The following formula was used to calculate the tumor volume: Tumor volume=[…]. Percent reduction in tumor growth was calculated with respect to the Vehicle treated group.

For `CCCCC[C@H](O)CC(=O)CCc1ccc(O)c(OC)c1` [gingerol], in data set [1], the “enhancement of the bioavailability of curcumin” value is listed as 43%.
Take `O=C(/C=C/C=C/c1ccc2c(c1)OCO2)N1CCCCC1` [piperine]: the “enhancement of the bioavailability of curcumin” value in data set [1] is on record as 33%.
Regarding `O=C(CCCCCCC(=O)Nc1ccccc1)NO` [Vorinostat], the “% Redn. (percent reduction in tumor growth with respect to the Vehicle treated group)” value in data set [2] (150 mg/kg oral once daily for 28 days) was 47%. Besides, the “Tumor volume, Mean ± SE, Day 0” value in data set [2] (150 mg/kg oral once daily, Day 0) stood at 131.6 ± 23.1 mm^3. The “Tumor volume, Mean ± SE, Day 4” value in data set [2] (150 mg/kg oral once daily, Day 4) is 236.6 ± 42.7 mm^3. Further, in data set [2] (150 mg/kg oral once daily, Day 8), the “Tumor volume, Mean ± SE, Day 8” value turned out to be 334.4 ± 52.3 mm^3. In addition, the “Tumor volume, Mean ± SE, Day 12” value in data set [2] (150 mg/kg oral once daily, Day 12) was 460.6 ± 76.0 mm^3. Moreover, in data set [2] (150 mg/kg oral once daily, Day 16), the “Tumor volume, Mean ± SE, Day 16” value is 544.6 ± 79.1 mm^3. Besides, the “Tumor volume, Mean ± SE, Day 19” value in data set [2] (150 mg/kg oral once daily, Day 19) is 669.6 ± 107.0 mm^3. Also, the “Tumor volume, Mean ± SE, Day 22” value in data set [2] (150 mg/kg oral once daily, Day 22) stood at 726.0 ± 120.8 mm^3. For the same compound, the “Tumor volume, Mean ± SE, Day 26” value in data set [2] (150 mg/kg oral once daily, Day 26) is recorded as 916.6 ± 157.9 mm^3. In addition, the “Tumor volume, Mean ± SE, Day 29” value in data set [2] (150 mg/kg oral once daily, Day 29) stood at 979.1 ± 157.2 mm^3.
